Holding throughout (format): biochemical
Test [1] has as its target PAK2 (PAK65) (Homo sapiens, UniProt Q13177). Description: In vitro PAK inhibition assay (SelectScreen, Ser/Thr 20 peptide). The procedure:
(§1) Compounds are screened in 1% DMSO (final) in the well. For 10 point titrations, 3-fold serial dilutions are conducted.
(§2) All Peptide/Kinase Mixtures are diluted to a 2× working concentration in the appropriate Kinase Buffer
The 2×PAK2 (PAK65)/Ser/Thr 20 mixture is prepared in 50 mM HEPES pH 7.5, 0.01% BRIJ-35, 10 mM MgCl2, 1 mM EGTA. The final 10 μL Kinase Reaction consists of 0.29-6 ng PAK2 (PAK65) and 2 μM Ser/Thr 20 in 50 mM HEPES pH 7.5, 0.01% BRIJ-35, 10 mM MgCl2, 1 mM EGTA.
(§3) This control yields 100% cleaved peptide in the Development Reaction.
(§4) The 100% Phosphorylation Control, which consists of a synthetically phosphorylated peptide of the same sequence as the peptide substrate, is designed to allow for the calculation of percent phosphorylation.
(§5) This control is designed to produce a 10-50%* phosphorylated peptide in the Kinase Reaction.
(§6) A known inhibitor control standard curve, 10 point titration, is run for each individual kinase on the same plate as the kinase to ensure the kinase is inhibited within an expected IC50 range previously determined.
(§7) Add the following solutions to a well in a 384-well plate: • 2.5 μL of 4× Test Compound OR (100 nL 100× Test Compound plus 2.4 μL kinase buffer) • 5 μL of 2× Peptide/Kinase (PAK) Mixture • 2.5 μL of 4×ATP Solution • 2. Shake the plate for 30-seconds • 3. Incubate the PAK Kinase Reaction at room temperature for 60-minutes • 4. Add 5 μL of Development Reagent Solution to each well • 5. Shake the plate for 30-seconds • 6. Incubate the Development Reaction for 60-minutes • 7. Determine the fluorescence using a fluorescence plate reader • 8. Analyze the fluorescence data
(§8) SelectScreen® Kinase Profiling Service uses XLfit from IDBS.
(§9) The representative IC50 value with a known inhibitor for each kinase was determined at the ATP bin nearest to the ATP Km app.

For test [2], the target named is PAK1 (Homo sapiens, UniProt Q13153). Description: In vitro PAK inhibition assay (SelectScreen, Ser/Thr 19 peptide). The procedure: as §1, §2
Chain of PAK1 (Q13153 whole entry): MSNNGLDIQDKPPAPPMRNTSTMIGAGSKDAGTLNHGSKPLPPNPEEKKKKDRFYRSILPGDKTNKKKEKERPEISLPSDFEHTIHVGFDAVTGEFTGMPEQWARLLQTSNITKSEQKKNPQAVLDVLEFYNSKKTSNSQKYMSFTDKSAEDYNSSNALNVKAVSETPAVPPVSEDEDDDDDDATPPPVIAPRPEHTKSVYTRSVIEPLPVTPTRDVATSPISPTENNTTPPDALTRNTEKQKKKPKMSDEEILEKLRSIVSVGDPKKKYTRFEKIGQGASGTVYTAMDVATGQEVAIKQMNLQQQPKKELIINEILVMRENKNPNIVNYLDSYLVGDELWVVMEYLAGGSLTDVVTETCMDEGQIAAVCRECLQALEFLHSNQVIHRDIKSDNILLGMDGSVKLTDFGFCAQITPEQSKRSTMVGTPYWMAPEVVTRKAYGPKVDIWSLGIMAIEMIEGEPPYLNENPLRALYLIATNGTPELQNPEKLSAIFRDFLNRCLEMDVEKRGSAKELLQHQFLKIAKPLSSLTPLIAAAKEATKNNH
The 2×PAK1/Ser/Thr 19 mixture is prepared in 50 mM HEPES pH 7.5, 0.01% BRIJ-35, 10 mM MgCl2, 1 mM EGTA.
as §3, §4, §5, §6, §7, §8, §9

The target in test [3] is PAK3 (Homo sapiens, UniProt O75914). Description: In vitro PAK inhibition assay (SelectScreen, Ser/Thr 20 peptide). The protocol:
as §1, §2
The 2×PAK3/Ser/Thr 20 mixture is prepared in 50 mM HEPES pH 7.5, 0.01% BRIJ-35, 10 mM MgCl2, 1 mM EGTA.
as §3, §4, §5, §6, §7, §8, §9

The target of test [4] is PAK4 (Homo sapiens, UniProt O96013). The test is described as above. The protocol: as §1, §2
Chain of PAK4 (O96013 whole entry): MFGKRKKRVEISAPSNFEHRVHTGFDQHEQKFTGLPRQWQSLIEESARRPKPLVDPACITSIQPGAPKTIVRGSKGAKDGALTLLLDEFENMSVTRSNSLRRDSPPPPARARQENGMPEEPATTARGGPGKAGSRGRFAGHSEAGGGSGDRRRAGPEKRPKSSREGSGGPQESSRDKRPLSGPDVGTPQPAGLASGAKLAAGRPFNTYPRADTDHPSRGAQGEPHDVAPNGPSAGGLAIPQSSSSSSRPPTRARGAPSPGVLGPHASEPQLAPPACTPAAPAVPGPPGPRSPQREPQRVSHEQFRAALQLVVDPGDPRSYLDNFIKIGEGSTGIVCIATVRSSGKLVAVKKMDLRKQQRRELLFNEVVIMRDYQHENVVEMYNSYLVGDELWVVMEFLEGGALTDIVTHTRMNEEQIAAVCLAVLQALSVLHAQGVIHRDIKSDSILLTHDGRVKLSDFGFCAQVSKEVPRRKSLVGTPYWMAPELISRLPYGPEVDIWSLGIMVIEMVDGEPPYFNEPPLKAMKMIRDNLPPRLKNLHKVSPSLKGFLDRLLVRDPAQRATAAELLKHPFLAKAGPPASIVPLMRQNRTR
The 2×PAK4/Ser/Thr 20 mixture is prepared in 50 mM HEPES pH 7.5, 0.01% BRIJ-35, 10 mM MgCl2, 1 mM EGTA. The final 10 μL Kinase Reaction consists of 0.1-0.75 ng PAK4 and 2 μM Ser/Thr 20 in 50 mM HEPES pH 7.5, 0.01% BRIJ-35, 10 mM MgCl2, 1 mM EGTA. After the 1 hour Kinase Reaction incubation, 5 μL of a 1:256 dilution of Development Reagent A is added.
as §3, §4
The minimum Emission Ratio in a screen is established by the 0% Inhibition Control, which contains active kinase. This control is designed to produce a 10-50%* phosphorylated peptide in the Kinase Reaction.
as §6
as §7, with “Bar-coded Corning, low volume NBS, black 384-well plate (Corning Cat. #3676) • 1. Add the” for “Add the”
SelectScreen® Kinase Profiling Service uses XLfit from IDBS. The dose response curve is curve fit to model number 205 (sigmoidal dose-response model).
The table below provides specifications and data around each kinase. The representative IC50 value with a known inhibitor for each kinase was determined at the ATP bin nearest to the ATP Km app.

Molecules are shown by their SMILES. A value given as a limit tells only on which side of the number the result lay.

Usually IC50 stands for the point on the concentration scale where inhibition reaches its midpoint. The low end stands for greater potency, the high end for weaker potency.

Chain of PAK2 (PAK65) (Q13177 whole entry): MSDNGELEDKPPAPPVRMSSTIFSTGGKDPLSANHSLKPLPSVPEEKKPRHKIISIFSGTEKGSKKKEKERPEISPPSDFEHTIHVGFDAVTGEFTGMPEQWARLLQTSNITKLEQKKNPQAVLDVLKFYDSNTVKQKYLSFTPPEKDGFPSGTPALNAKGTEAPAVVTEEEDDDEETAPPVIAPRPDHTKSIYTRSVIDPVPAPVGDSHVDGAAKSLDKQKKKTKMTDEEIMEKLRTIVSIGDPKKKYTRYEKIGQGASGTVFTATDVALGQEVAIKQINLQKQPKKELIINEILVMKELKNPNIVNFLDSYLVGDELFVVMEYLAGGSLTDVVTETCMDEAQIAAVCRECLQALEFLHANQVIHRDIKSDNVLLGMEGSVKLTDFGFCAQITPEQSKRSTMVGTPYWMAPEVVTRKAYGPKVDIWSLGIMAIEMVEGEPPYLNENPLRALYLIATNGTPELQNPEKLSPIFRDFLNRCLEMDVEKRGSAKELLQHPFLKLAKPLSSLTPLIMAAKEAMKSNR
Chain of PAK3 (O75914 whole entry): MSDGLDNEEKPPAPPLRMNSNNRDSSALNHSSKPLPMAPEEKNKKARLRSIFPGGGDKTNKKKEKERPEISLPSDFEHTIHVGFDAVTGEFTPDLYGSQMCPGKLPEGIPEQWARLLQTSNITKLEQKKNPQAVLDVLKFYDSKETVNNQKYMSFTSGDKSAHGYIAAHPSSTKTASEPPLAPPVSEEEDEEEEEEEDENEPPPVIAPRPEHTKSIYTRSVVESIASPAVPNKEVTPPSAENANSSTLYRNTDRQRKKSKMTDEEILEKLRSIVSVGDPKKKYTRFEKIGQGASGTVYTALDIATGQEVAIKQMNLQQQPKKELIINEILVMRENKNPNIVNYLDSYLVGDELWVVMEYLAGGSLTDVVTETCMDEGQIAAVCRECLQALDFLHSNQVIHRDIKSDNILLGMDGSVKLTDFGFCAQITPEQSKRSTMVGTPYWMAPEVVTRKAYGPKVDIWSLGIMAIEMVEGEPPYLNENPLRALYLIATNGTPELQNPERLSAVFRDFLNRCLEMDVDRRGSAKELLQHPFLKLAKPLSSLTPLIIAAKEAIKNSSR

As to `CCn1c(=O)c(-c2ccc(-c3cn[nH]c3)cc2)cc2cnc(Nc3ccc(N4CCN(C)CC4)cc3)nc21`, the IC50 in test [1] is 0.5 to 5 µM; in test [2], more than 5 µM; in test [3], more than 5 µM; in test [4], not below 5 µM.
Turning to `CCn1c(=O)c(-c2ccc(-c3ccn[nH]3)cc2)cc2cnc(Nc3ccc(N4CCN(C)CC4)cc3)nc21`, the 50% inhibitory concentration (IC50) is 0.05 to 0.5 µM in test [1], 0.5 to 5 µM in test [2], 0.5 to 5 µM in test [3] and not below 5 µM in test [4].
`CCn1c(=O)c(-c2nc(C)sc2C)cc2cnc(Nc3ccc(N4CCN(C)CC4)cc3)nc21`: the IC50 in test [1] is 0.5 to 5 µM; in test [2] it was 0.5 to 5 µM; in test [3] it was more than 5 µM; in test [4] it was not below 5 µM.
Take `CCn1c(=O)c(-c2ccc(-c3cncs3)cc2Cl)cc2cnc(Nc3ccc(N4CCN(C(C)C)CC4)c(F)c3)nc21`: the half-inhibitory concentration (IC50) in test [1] was less than 0.05 µM; in test [2] it was less than 0.05 µM; in test [3] it was less than 0.05 µM; in test [4] it was not below 5 µM.
Consider `CCn1c(=O)c(-c2ccc(-c3noc(C)n3)cc2Cl)cc2cnc(Nc3ccc(N4CCNCC4)cc3)nc21`, for which the IC50 in test [1] is less than 0.05 µM; in test [2], less than 0.05 µM; in test [3], less than 0.05 µM; in test [4], 0.05 to 0.5 µM.
Turning to `CCn1c(=O)c(-c2ccc(-c3scnc3C)cc2Cl)cc2cnc(Nc3ccc(N4CCN(C)CC4)cc3)nc21`, the IC50 was less than 0.05 µM in test [1], less than 0.05 µM in test [2], less than 0.05 µM in test [3] and not below 5 µM in test [4].
For `CCN1CCN(c2ccc(Nc3ncc4cc(-c5ccc(-c6cncs6)cc5Cl)c(=O)n(CC)c4n3)cc2F)CC1`, the IC50 in test [1] was less than 0.05 µM; in test [2] it was less than 0.05 µM; in test [3], 0.05 to 0.5 µM; in test [4], not below 5 µM.
`CCn1c(=O)c(-c2ccc(-c3scnc3C)cc2Cl)cc2cnc(Nc3ccc(N4CCN(C(C)C)CC4)cc3)nc21`: the IC50 in test [1] was less than 0.05 µM; in test [2], less than 0.05 µM; in test [3], 0.05 to 0.5 µM; in test [4] it was not below 5 µM.
As for `CCn1c(=O)c(-c2ccc(-c3ncccn3)cc2Cl)cc2cnc(Nc3ccc(N4CCN(C)CC4)cc3)nc21`, the IC50 in test [1] was less than 0.05 µM; in test [2], less than 0.05 µM; in test [3], less than 0.05 µM; in test [4] it was 0.5 to 5 µM.
Take `CCn1c(=O)c(-c2ccc(-c3cnc(C)s3)cc2Cl)cc2cnc(Nc3ccc(N4CCN(C)CC4)cc3)nc21`: the IC50 was less than 0.05 µM in test [1], less than 0.05 µM in test [2], less than 0.05 µM in test [3] and not below 5 µM in test [4].
For `CCn1c(=O)c(-c2ccc(-c3noc(C(F)(F)F)n3)cc2Cl)cc2cnc(Nc3ccc(N4CCN(C(C)C)CC4)cc3)nc21`, the IC50 is less than 0.05 µM in test [1], less than 0.05 µM in test [2], less than 0.05 µM in test [3] and not below 5 µM in test [4].
With `CCn1c(=O)c(-c2ccc(-c3noc(C)n3)cc2Cl)cc2cnc(Nc3ccc(N4CCN(C(C)C)CC4)cc3)nc21`, the IC50 in test [1] was less than 0.05 µM; in test [2], less than 0.05 µM; in test [3], less than 0.05 µM; in test [4], 0.5 to 5 µM.
Take `CCn1c(=O)c(-c2ccc(-c3noc(C)n3)cc2Cl)cc2cnc(Nc3ccc(N4CCN(C)CC4)c(F)c3)nc21`: the IC50 in test [1] is less than 0.05 µM; in test [2], less than 0.05 µM; in test [3] it was less than 0.05 µM; in test [4], not below 5 µM.
Turning to `CCn1c(=O)c(-c2ccc(-c3scnc3C)cc2Cl)cc2cnc(Nc3ccc(N4CCNCC4)cc3)nc21`, the IC50 in test [1] is less than 0.05 µM; in test [2], less than 0.05 µM; in test [3] it was less than 0.05 µM; in test [4], 0.5 to 5 µM.
Turning to `CCN1CCN(c2ccc(Nc3ncc4cc(-c5ccc(-c6scnc6C)cc5Cl)c(=O)n(CC)c4n3)cc2)CC1`, the IC50 in test [1] was less than 0.05 µM; in test [2] it was less than 0.05 µM; in test [3] it was 0.05 to 0.5 µM; in test [4] it was not below 5 µM.
With `CCn1c(=O)c(-c2ccc(-c3noc(C)n3)cc2)cc2cnc(Nc3ccc(N4CCN(C)CC4)cc3)nc21`, the IC50 in test [1] was 0.05 to 0.5 µM; in test [2] it was less than 0.05 µM; in test [3], 0.05 to 0.5 µM; in test [4] it was not below 5 µM.
Turning to `CCn1c(=O)c(-c2ccc(-c3cccnc3)cc2Cl)cc2cnc(Nc3ccc(C4CCNCC4)c(F)c3)nc21`, the IC50 in test [1] is less than 0.05 µM; in test [2] it was less than 0.05 µM; in test [3], less than 0.05 µM; in test [4], 0.5 to 5 µM.
As to `CCn1c(=O)c(-c2ccc(-c3ccc(C)nc3)cc2Cl)cc2cnc(Nc3ccc(N4CCN(C)CC4)cc3)nc21`, the IC50 was less than 0.05 µM in test [1], less than 0.05 µM in test [2], 0.05 to 0.5 µM in test [3] and 0.5 to 5 µM in test [4].
Take `CCn1c(=O)c(-c2ccc(-c3cccnc3C)cc2Cl)cc2cnc(Nc3ccc(N4CCN(C)CC4)cc3)nc21`: the IC50 in test [1] was less than 0.05 µM; in test [2] it was less than 0.05 µM; in test [3], less than 0.05 µM; in test [4], not below 5 µM.
In the case of `CCn1c(=O)c(-c2ccc(-c3ccc(C(=O)NC)nc3)cc2Cl)cc2cnc(Nc3ccc(N4CCN(C)CC4)cc3)nc21`, the IC50 is 0.05 to 0.5 µM in test [1], more than 5 µM in test [2], more than 5 µM in test [3] and not below 5 µM in test [4].
`CCn1c(=O)c(-c2ccc(-c3ccnc(C)c3)cc2Cl)cc2cnc(Nc3ccc(N4CCN(C)CC4)cc3)nc21`: the IC50 was less than 0.05 µM in test [1], less than 0.05 µM in test [2], less than 0.05 µM in test [3] and not below 5 µM in test [4].
Regarding `CCn1c(=O)c(-c2ccc(-c3cccnc3)cc2Cl)cc2cnc(Nc3ccc(C4CCNC4)cc3)nc21` (stereo not shown), the IC50 in test [1] was less than 0.05 µM; in test [2] it was less than 0.05 µM; in test [3], less than 0.05 µM; in test [4], 0.5 to 5 µM.
Turning to `CCn1c(=O)c(-c2ccc(-c3noc(C)n3)cc2Cl)cc2cnc(Nc3ccc(C4CCNC4)cc3)nc21` (stereo not shown), the IC50 is less than 0.05 µM in test [1], less than 0.05 µM in test [2], less than 0.05 µM in test [3] and 0.5 to 5 µM in test [4].
In the case of `CCn1c(=O)c(-c2ccc(-c3noc(C)n3)cc2Cl)cc2cnc(Nc3ccc(C4CCNC4)c(F)c3)nc21` (stereo not shown), the IC50 in test [1] is less than 0.05 µM; in test [2], less than 0.05 µM; in test [3], less than 0.05 µM; in test [4], 0.5 to 5 µM.
As for `CCn1c(=O)c(-c2ccc(-c3noc(C)n3)cc2Cl)cc2cnc(Nc3ccc(N4CCNCC4)c(F)c3)nc21`, the IC50 in test [1] is less than 0.05 µM; in test [2], less than 0.05 µM; in test [3], less than 0.05 µM; in test [4], 0.05 to 0.5 µM.
As for `CCn1c(=O)c(-c2ccc(-c3ccnc(C(=O)NC)c3)cc2Cl)cc2cnc(Nc3ccc(N4CCN(C)CC4)cc3)nc21`, the IC50 in test [1] is less than 0.05 µM; in test [2], less than 0.05 µM; in test [3] it was 0.05 to 0.5 µM; in test [4], not below 5 µM.
Turning to `CCn1c(=O)c(-c2ccc(-c3ccnc(C(=O)NC)c3)cc2Cl)cc2cnc(Nc3ccc(C4CCN(C)CC4)cc3)nc21`, the IC50 is 0.05 to 0.5 µM in test [1], less than 0.05 µM in test [2], 0.05 to 0.5 µM in test [3] and not below 5 µM in test [4].
With `CCn1c(=O)c(-c2ccc(-c3cccnc3)cc2Cl)cc2cnc(Nc3ccc(C4CCN(C)CC4)cc3)nc21`, the IC50 in test [1] is less than 0.05 µM; in test [2], less than 0.05 µM; in test [3], less than 0.05 µM; in test [4], 0.5 to 5 µM.

Source of the values: US20140163026A1, “8-ETHYL-6-(ARYL)PYRIDO[2,3-D]PYRIMIDIN-7(8H)-ONES FOR THE TREATMENT OF NERVOUS SYSTEM DISORDERS AND CANCER” (Afraxis Holdings, Inc., priority 2011, published 2014).
